From patent publication US7071203B2, “Pharmaceutically acceptable salts of 20(s)-camptothecins” (Dr. Reddy's Laboratories Limited, priority 2001, dated 2006)
Where a name gives a salt, the structure may show the parent alone. Read-outs that look alike come from different tables or passages of the source.

What was measured:
DU-145 = assay: Sulforhodamine B growth inhibition, prostate cell line DU-145; type: cell-based, human; settings: for GI50: Homo sapiens, read-out: Growth Inhibition (GI 50)
Protocol: (§1) Each test compound was screened against a battery of cell lines representing eight different types of cancers. In a typical procedure, 1×10^4 cells were seeded into each well of 96 well plate in 100 μL volume of RPMI 1640 medium containing antibiotics and 10% FCS.
(§2) The plates were incubated at 37° C. in presence of CO2. After 24 h, test compounds were evaluated at five 10-fold dilutions ranging from 100 to 0.01 μM. To each test well 100 μL of test compound solution was added and medium with vehicle was added to control wells and the plates were further incubated. After 48 h of incubation, plates were terminated by Sulforhodamine B method.
(§3) The optical density, which is proportional to protein mass, is then read by automated spectrophotometric plate reader at a wavelength of 515 nm. Readings were transferred to a microcomputer and mean 50% Growth Inhibition (GI50) and mean Total Growth Inhibition were calculated.

MCF-7/ADR = assay: Sulforhodamine B growth inhibition, breast cell line MCF-7/ADR; type: cell-based, human; settings: 48 h; for GI50: Homo sapiens, NCI/ADR-RES, read-out: Growth Inhibition (GI 50)
Protocol: as §1, §2, §3

OVCAR-8 = assay: Sulforhodamine B growth inhibition, ovarian cell line OVCAR-8; type: cell-based, human; settings: OVARIAN: OVCAR-8, 48 h; for GI50: Homo sapiens, read-out: Growth Inhibition (GI 50)
Protocol: as §1, §2, §3

HOP-62 = assay: Sulforhodamine B growth inhibition, lung cell line HOP-62; type: cell-based, human; settings: LUNG: HOP-62, 48 h; for GI50: Homo sapiens, read-out: Growth Inhibition (GI 50)
Protocol: as §1, §2, §3

SF-268 = assay: Sulforhodamine B growth inhibition, CNS cell line SF-268; type: cell-based, human; settings: CNS: SF-268, 48 h; for GI50: Homo sapiens, read-out: Growth Inhibition (GI 50)
Protocol: as §1, §2, §3

ACHN = assay: Sulforhodamine B growth inhibition, renal cell line ACHN; type: cell-based, human; settings: 48 h; for GI50: Homo sapiens, read-out: Growth Inhibition (GI 50)
Protocol: as §1, §2, §3

UACC-62 = assay: Sulforhodamine B growth inhibition, melanoma cell line UACC-62; type: cell-based, human; settings: for GI50: Homo sapiens, read-out: Growth Inhibition (GI 50)
Protocol: as §1, §2, §3

A 498 = assay: Sulforhodamine B growth inhibition, renal cell line A 498; type: cell-based, human
Protocol: as §1, §2, §3

[1] = Single dose oral pharmacokinetic studies; type: in vivo, Male Swiss Albino Mice
Protocol: Male Swiss Albino Mice (20–30 g) were used in the experiments. The animals were maintained under standard laboratory conditions and had free access to feed and water ad libitum. Before experimentation animals were fasted overnight (˜15 h) during which they had free access to water ad libitum.
An amount equivalent to 10 mg of drug was weighed accurately and transferred into a clean mortar and triturated to obtain a fine powder. To this 500 μl of DMSO (10%) was added to obtain a clear solution. To this 4.5 ml of sodium carboxy methyl cellulose (sodium CMC) was added to make up the volume to 5 ml. Based on the animal weight appropriate volume (body weight in grams×10=no. of μl of dose to be given) of the prepared solution was administered through oral gavage.
After dosing, at designated time points (0.5, 1, 2, 3, 5, 8 and 12 h) 100 μl of blood was collected from retro orbital plexus into 0.5 ml eppendorff tubes containing EDTA (5 μl of 200 mg/ml solution in Milli Q water). Blood was centrifuged at 12,800 rpm for 2 min and plasma was separated and immediately taken for analysis, without delay, in order to estimate both lactone and carboxylate forms of the compound.
50 μl plasma was transferred into a clean 2 ml micro centrifuge tube. To this ice cold methanol was added (450 μl) and vertex mixed for 15 sec to extract the compound. These contents were centrifuged for 2 min at 12,800 rpm dry centrifuge tube. Clear supernatant was separated in to a 300 μl of auto sampler vial maintained at 4° C. and 20 μl of this was injected into HPLC column. HPLC Conditions:
HPLC system (Shimadzu) consisted of system controller (SCL-10AVP), Isocratic pump (LC-10ATVP), auto sampler (SIL-10ADVP), fluorescence detector (RF-10AXL) and column oven at 25° C. (CTO-1OASVP) was controlled by Class-VP software. Sample was eluted through column (Supelcosil-LC318, 5μ, 4.6×250 mm, 300° A) with mobile phase [1% TEAA (pH=5.5):Acetonitrile:MeOH::80:15:5) pumped at 1.0 ml/min flow rate and eluent was detected using fluorescence detector set at Ex. 370 nm/Em. 537 nm. The approx. RTs were carboxylate (CA1=4.1 min, CA2=4.8 min) and lactone (LA1=7.9 min, LA2=11.6 min).
For the determination of drug concentration, peak area ratios of the drug to internal standard versus the concentration (range: 0.05–10 μg/ml) for both carboxylate and lactone forms were plotted separately and linear regression was applied using software “Sigma Plot” (Jandel Scientific version, 2.0, USA). Correlation coefficients (r^2) of 0.99 or better were obtained.
Pharmacokinetic parameters were calculated for both carboxylate and lactone forms separately by non-compartmental model analysis. The peak plasma concentration (Cmax) and the corresponding time (Tmax) were directly obtained from the raw data. The area under the plasma concentration versus time curve up to the last quantifiable time point, AUC(0-t) was obtained by the linear and log-linear trapezoidal summation. The AUC(0-t) extrapolated to infinity (i.e., AUC (0-∞)) by adding the quotient of Clast/Kel, where Clast represents the last measurable time concentration and Kel represents the apparent terminal rate constant. Kel was calculated by the linear regression of the log-transformed concentrations of the drug in the terminal phase. The half-life of the terminal elimination phase was obtained using the relationship t1/2=0.693/ Kel.

MCF 7 = assay: Sulforhodamine B growth inhibition, breast cell line MCF 7; type: cell-based, human
Protocol: as §1, §2, §3

PA-1 = assay: Sulforhodamine B growth inhibition, ovarian cell line PA-1; type: cell-based, human; settings: OVARIAN: PA-1, 48 h
Protocol: as §1, §2, §3

SKOV-3 = assay: Sulforhodamine B growth inhibition, ovarian cell line SKOV-3; type: cell-based, human
Protocol: as §1, §2, §3

SW-620 = assay: Sulforhodamine B growth inhibition, colon cell line SW-620; type: cell-based, human; settings: COLON: SW-620, 48 h
Protocol: as §1, §2, §3

U251 = assay: Sulforhodamine B growth inhibition, CNS cell line U251; type: cell-based, human
Protocol: as §1, §2, §3

H 522 = assay: Sulforhodamine B growth inhibition, lung cell line H 522; type: cell-based, human
Protocol: as §1, §2, §3

PC-3 = assay: Sulforhodamine B growth inhibition, prostate cell line PC-3; type: cell-based, human; settings: PROSTATE: PC-3, 48 h
Protocol: as §1, §2, §3

[2] = PROSTATE: DU-145, 48 h, Sulforhodamine B
[3] = BREAST: MCF-7/ADR, Sulforhodamine B
[4] = MELANOMA: UACC-62, 48 h, Sulforhodamine B
[5] = Lactone, single oral dose, mice, plasma, n = 3
[6] = male, Swiss Albino, mouse, in vivo, po
[7] = Homo sapiens, read-out: Growth Inhibition (GI 50)

CC[C@@]1(O)C(=O)OCc2c1cc1n(c2=O)C(O)c2cc3c(CN(C)C)c(O)ccc3nc2-1 (stereo partly drawn) [Example 1, 10-Hydroxy-9-N,N-dimethylaminomethyl-5-hydroxy-20(S)-camptothecin hydrochloride]
GI50 (DU-145; DU-145, 48 h): 0.4 µM | Total Growth Inhibition (TGI) (DU-145; [2]): 0.8 µM | Total Growth Inhibition (TGI) (MCF-7/ADR; [3]): 0.9 µM | GI50 (MCF-7/ADR): 0.25 µM | GI50 (OVCAR-8): 0.5 µM | Total Growth Inhibition (TGI) (OVCAR-8): >100 µM | GI50 (HOP-62): 0.6 µM | Total Growth Inhibition (TGI) (HOP-62): 25.0 µM | Total Growth Inhibition (TGI) (SF-268): 90.0 µM | GI50 (SF-268): 0.55 µM | Total Growth Inhibition (TGI) (ACHN): 1.0 µM | GI50 (ACHN): 0.4 µM | GI50 (UACC-62; UACC-62, 48 h): 0.7 µM | Total Growth Inhibition (TGI) (UACC-62; [4]): 4.5 µM

CC[C@@]1(O)C(=O)OCc2c1cc1n(c2=O)C(OCCO)c2cc3c(CN(C)C)c(O)ccc3nc2-1 (stereo partly drawn) [Example 2, 10-Hydroxy-9-N,N-dimethylaminomethyl-5-(2′-hydroxyethoxy)-20(S)-camptothecin hydrochloride]
GI50 (DU-145; DU-145, 48 h): 5.5 µM | Total Growth Inhibition (TGI) (DU-145; [2]): 25.0 µM | Total Growth Inhibition (TGI) (MCF-7/ADR; [3]): 50.0 µM | GI50 (MCF-7/ADR): 7.5 µM | GI50 (OVCAR-8): 1 µM | Total Growth Inhibition (TGI) (OVCAR-8): 80.0 µM | GI50 (HOP-62): 8 µM | Total Growth Inhibition (TGI) (HOP-62): >100 µM | Total Growth Inhibition (TGI) (SF-268): >100 µM | GI50 (SF-268): 7.5 µM | Total Growth Inhibition (TGI) (ACHN): 40.0 µM | GI50 (ACHN): 4 µM | GI50 (UACC-62; UACC-62, 48 h): 6 µM | Total Growth Inhibition (TGI) (UACC-62; [4]): 6.0 µM

CC[C@@]1(O)C(=O)OCc2c1cc1n(c2=O)C(OCCF)c2cc3c(CN(C)C)c(O)ccc3nc2-1 (stereo partly drawn) [Example 3, 10-Hydroxy-9-N,N-dimethylaminomethyl-5-(2′-fluoroethoxy)-20(S)-camptothecin hydrochloride]
GI50 (A 498; Homo sapiens, A498, RENAL: A 498, 48 h, read-out: Growth Inhibition (GI 50)): 0.7 µM | Total Growth Inhibition (TGI) (A 498; RENAL: A 498, 48 h): 15.0 µM | GI50 (DU-145; [2]): 4 µM | Total Growth Inhibition (TGI) (DU-145; [2]): >100 µM | Total Growth Inhibition (TGI) (MCF-7/ADR; [3]): >100 µM | GI50 (MCF-7/ADR; [3]): 8 µM | Kel [1, 5]: 0.19 h⁻¹ | T1/2β(4,6,8h)^@ [1, 5]: 422 min | AUC(0-inf) [1, 6]: 9.74 µM·h | AUC(0-t) [1, 6]: 6.1 µM·h | AUC(0–t) [1, 6]: 11.05 µM·h | AUC(0–∞) [1, 6]: 15.14 µM·h | Tmax [1, 6]: 15 min | Total Growth Inhibition (TGI) (MCF 7; BREAST: MCF 7, 48 h): 10.0 µM | GI50 (MCF 7; Homo sapiens, MCF7, BREAST: MCF 7, 48 h, read-out: Growth Inhibition (GI 50)): 7.5 µM | GI50 (PA-1; [7]): 1 µM | Total Growth Inhibition (TGI) (PA-1): 5.0 µM | GI50 (SKOV-3; Homo sapiens, SK-OV-3, OVARIAN: SKOV-3, 48 h, read-out: Growth Inhibition (GI 50)): 6 µM | Total Growth Inhibition (TGI) (SKOV-3; OVARIAN: SKOV-3, 48 h): 40.0 µM | Total Growth Inhibition (TGI) (SW-620): >100 µM | GI50 (SW-620; [7]): 60 µM | GI50 (UACC-62; [4]): 1.5 µM | Total Growth Inhibition (TGI) (UACC-62; [4]): 8.0 µM | Total Growth Inhibition (TGI) (U251; 48 h): >100 µM | GI50 (U251; Homo sapiens, U-251, 48 h, read-out: Growth Inhibition (GI 50)): 1.5 µM | GI50 (H 522; Homo sapiens, NCI-H522, LUNG: H 522, 48 h, read-out: Growth Inhibition (GI 50)): 0.9 µM | Total Growth Inhibition (TGI) (H 522; LUNG: H 522, 48 h): 90.0 µM | GI50 (PC-3; [7]): 9 µM | Total Growth Inhibition (TGI) (PC-3): >100 µM
